Columns and labels:
[1] = test system: liver injury and fibrosis; conditions: murine NASH model; cited from earlier work
[2] = test system: hNPCs infected with ZIKV PRVABC59; assay: hNPC proliferation after ZIKV infection (EdU); type: cell-based, human; conditions: PHA-690509 1 μM, Seliciclib 5 μM
Experimental: (§1) FIGS. 17A-17C. Analysis of potential toxicity of CDKis on human astrocyte viability and hNPC proliferation. Human iPSC-derived astrocytes (BJ line) were treated with each indicated compound (cpd) for 25 hours prior to cell viability analysis as measured in relative luciferase units for ATP production. Values represent mean+s.d. (n=3 cultures; ***P<0.001; **P<0.01; One-way ANOVA for comparison with the DMSO treatment). RLU: relative luminescence units. hNPCs were treated with saline, PHA-690509 (PHA, 1 μM) or Seliciclib (5 μM), 1 hour prior to ZIKV PRVABC59 infection (MOI=0.08). At 72 hours post infection, EdU (10 μM) was added to hNPCs and cells were cultured for additional 4 hours prior to fixation and staining for EdU and DAPI. Values represent mean+s.e.m. (n=3 cultures; ***P<0.001; One-way ANOVA for comparison with the mock treatment). Day 20 forebrain-specific brain organoids were treated with PHA-690509 (1 μM) or Seliciclib (5 μM) for 3 days and hNPC proliferation was evaluated by phospho-Histone 3 (PH3) expression within the ventricular zone. Values represent mean+s.e.m. (n=8 organoids; P>0.05; One-way ANOVA for comparison with the mock treatment).

[3] = test system: forebrain-specific brain organoids; assay: hNPC proliferation in forebrain organoids (phospho-Histone 3), compound alone; type: cell-based, human; conditions: 3 days
Experimental: as §1

In the case of `C[C@H](NC(=O)C(=O)Nc1ccccc1C(C)(C)C)C(=O)N[C@@H](CC(=O)O)C(=O)COc1c(F)c(F)cc(F)c1F` [Emricasan], the “liver injury and fibrosis” value [1] is given as “reduces liver injury and fibrosis”.

In the case of `CC(=O)Nc1ccc([C@H](C)C(=O)Nc2ncc(C(C)C)s2)cc1` [PHA-690509], the “rescue of ZIKV-induced reduction of hNPC proliferation” value [2] is reported as “partially rescued ZIKV-induced reduction of hNPC proliferation” and the “effect of the treatment itself on hNPC proliferation” value [3] is reported as “minimal effect on hNPC proliferation in brain organoids”.

— patent US10940188B2, “Compounds and methods for treatment and prevention of Flavivirus infection” (priority 2016, dated 2021)
